The text below walks through data of US11274124B2, “Tubulysin analogues as anticancer agents and payloads for antibody-drug conjugates and methods of treatment therewith” (William Marsh Rice University, priority 2017, dated 2022).

pIC50: −log10 of the molar value. Read-outs that look alike come from different tables or passages of the source.

In data set [1] the test system is HEK 293T (human embryonic kidney cancer cell line). In words: In vitro cytotoxicity assay (CellTiter-Glo, 72 hours), HEK 293T. The class given is cell-based. To be noted: Homo sapiens, HEK-293T, 72 h; for IC50: read-out: HEK 293T, IC50 Value in nM; for pIC50: read-out: HEK 293T, IC50. (Cellular ATP, detected with luciferase, serves as a proxy for viable cell number.)

Data set [2] concerns MES SA DX (MES SA cell line with marked multi-drug resistance). Briefly: In vitro cytotoxicity assay (CellTiter-Glo, 72 hours), MES SA DX. To be noted: for IC50 / pIC50: Homo sapiens, MES-SA, 72 h; for IC50: read-out: MES SA DX, IC50 Value in nM; for pIC50: read-out: MES SA DX, IC50.
In data set [3] the test system is MES SA (uterine sarcoma cell line). In words: In vitro cytotoxicity assay (CellTiter-Glo, 72 hours), MES SA. The class given is cell-based. To be noted: Homo sapiens, MES-SA, 72 h; for IC50: read-out: MES SA, IC50 Value in nM; for pIC50: read-out: MES SA, IC50.

For the compound `CC(=O)O[C@H](C[C@H](C(C)C)N(C)C(=O)[C@H](C)NC(=O)[C@H]1CCCCN1C)c1nc(C(=O)N[C@@H](Cc2ccccc2)C[C@H](C)C(=O)O)cs1` [Tb91, (2S,4R)-4-[({2-[(1R,3R)-1-Acetoxy-4-methyl-3-{methyl[(2S)-2-({[(2R)-1-methylpiperidin-2-yl]car-bonyl}amino)propanoyl]amino}pentyl]-1,3-thiazol-4-yl}carbonyl)amino]-2-methyl-5-phenylpentanoic acid], the 50% inhibitory concentration (IC50) in data set [1], in data set [2] and in data set [3] was above 1000 nM in each case.
As to `COC(=O)[C@@H](CO)C[C@H](Cc1ccccc1)NC(=O)c1csc([C@@H](C[C@H](C(C)C)N(C)C(=O)[C@@H](NC(=O)[C@H]2CCCCN2C)C(C)C)OC(C)=O)n1` [Tb119, Methyl (2R,4R)-4-{2-[(1R,3R)-1-acetoxy-3-{(S)—N,3-dimethyl-2-[(R)-1-methylpiperidine-2-carboxamido]butanamido}-4-methylpentyl]thiazole-4-carboxamido}-2-(hydroxymethyl)-5-phenylpentanoate], the pIC50 – broadly, −log10 of the IC50, conventionally taken in molar units – is 10.39 in data set [1], below 7.85 in data set [2] and 10.03 in data set [3]. The IC50 (commonly the concentration at which inhibition is half-maximal) in data set [1] is 0.041 nM; in data set [2], above 14 nM; in data set [3], 0.093 nM.
Take `COC(=O)[C@@H](C)C[C@H](Cc1ccccc1)NC(=O)c1csc([C@@H](C[C@H](C(C)C)N(C)C(=O)[C@H](C)NC(=O)[C@H]2CCCCN2C)OC(C)=O)n1` [Tb89, Methyl (2S,4R)-4-[({2-[(1R,3R)-1-acetoxy-4-methyl-3-{methyl[(2S)-2-({[(2R)-1-methylpiperidin-2-yl]carbonyl}amino)propanoyl]amino}pentyl]-1,3-thiazol-4-yl}carbonyl)amino]-2-methyl-5-phenylpentanoate]: the IC50 in data set [1], in data set [2] and in data set [3] was above 1000 nM each time.
For `CC(=O)O[C@H](C[C@H](C(C)C)N(C)C(=O)[C@@H](NC(=O)[C@H]1CCCCN1C)C(C)C)c1cccc(C(=O)N[C@@H](Cc2ccccc2)C[C@H](C)C(=O)O)n1` [Tb65, (2S,4R)-4-[({6-[(1R,3R)-1-Acetoxy-4-methyl-3-{methyl[(2S)-3-methyl-2-({[(2R)-1-methylpiperidin-2-yl]carbonyl}amino)butanoyl]amino}pentyl]pyridin-2-yl}carbonyl)amino]-2-methyl-5-phenylpentanoic acid], the IC50 in data set [1] was 2.04 nM; in data set [2], 279 nM; in data set [3] it was 2.44 nM.
Turning to `COC(=O)[C@@H](C)C[C@H](Cc1ccccc1)NC(=O)c1csc([C@@H](C[C@H](C(C)C)N(C)C(=O)[C@H](CC(F)(F)F)NC(=O)[C@H]2CCCN2C)OC(C)=O)n1` [Tb82, Methyl (2S,4R)-4-[({2-[(1R,3R)-1-acetoxy-4-methyl-3-{methyl[(2S)-4,4,4-trifluoro-2-({[(2R)-1-methylpyrrolidin-2-yl]carbonyl}amino)butanoyl]amino}pentyl]-1,3-thiazol-4-yl}carbonyl)amino]-2-methyl-5-phenylpentanoate], the IC50 in data set [1] is 51.6 nM; in data set [2] it was above 1000 nM; in data set [3] it was 47.5 nM.
In the same order, the values of `CCOC(=O)[C@@H](C)C[C@H](Cc1ccccc1)NC(=O)c1csc([C@@H](C[C@H](C(C)C)N(C)C(=O)[C@@H](NC(=O)[C@H]2C[C@H](O)CCN2C)C(C)C)OC(C)=O)n1` [Tb76, Ethyl (2S,4R)-4-[({2-[(1R,3R)-1-acetoxy-3-{[(2S)-2-({[(2R,4R)-4-hydroxy-1-methylpiperidin-2-yl]-carbonyl}amino)-3-methylbutanoyl](methyl)amino}-4-methylpentyl]-1,3-thiazol-4-yl}carbonyl)-amino]-2-methyl-5-phenylpentanoate] are 1.37 nM, above 2500 nM and 4.88 nM.
As to `CCN[C@@H](C[C@H](Cc1ccccc1)NC(=O)c1csc([C@@H](C[C@H](C(C)C)N(C)C(=O)[C@@H](NC(=O)[C@H]2CCCCN2C)C(C)C)OC(C)=O)n1)C(=O)OC` [Tb118, Methyl (2S)-4-{[(2-{1-acetoxy-4-methyl-3-[methyl(3-methyl-2-{[(1-methylpiperidin-2-yl)carbonyl]-amino}butanoyl)amino]pentyl}-1,3-thiazol-4-yl)carbonyl]amino}-2-(ethylamino)-5-phenylpentanoate], the values for the pIC50 in data set [1], in data set [2] and in data set [3] were 10.82, 8.25 and 9.85, respectively. For the same compound, the values for the IC50 in data set [1], in data set [2] and in data set [3] were 0.015 nM, 5.6 nM and 0.14 nM, respectively. In data set [2], the “cytotoxicities against the marked drug resistant cancer cell line MES SA DX (in words)” value was “relatively potent (low nanomolar)”.
Consider `CC(=O)O[C@H](C[C@H](C(C)C)N(C)C(=O)[C@H](NC(=O)[C@H]1CCCCN1C)C(C(F)(F)F)C(F)(F)F)c1nc(C(=O)N[C@@H](Cc2ccccc2)C[C@H](C)C(=O)O)cs1` [Tb87, (2S,4R)-4-[({2-[(1R,3R)-1-Acetoxy-4-methyl-3-{methyl[(2R)-4,4,4-trifluoro-2-({[(2R)-1-methyl-piperidin-2-yl]carbonyl}amino)-3-(trifluoromethyl)butanoyl]amino}pentyl]-1,3-thiazol-4-yl}carbonyl)amino]-2-methyl-5-phenylpentanoic acid], for which the values for the IC50 in data set [1], in data set [2] and in data set [3] were above 1000 nM, above 1000 nM and 234 nM, respectively.
For the compound `CCCCN1CCCC[C@@H]1C(=O)N[C@H](C(=O)N(C)[C@H](C[C@@H](OC(C)=O)c1nc(C(=O)N[C@@H](Cc2ccccc2)CC(CO)C(=O)OC)cs1)C(C)C)[C@@H](C)CC` (stereo partly drawn) [Tb56, Methyl (4R)-4-[({2-[(1R,3R)-1-acetoxy-3-{[(2S,3S)-2-({[(2R)-1-butylpiperidin-2-yl]carbonyl}amino)-3-methylpentanoyl](methyl)amino}-4-methylpentyl]-1,3-thiazol-4-yl}carbonyl)amino]-2-(hydroxy-methyl)-5-phenylpentanoate], the half-maximal inhibitory concentration (IC50) in data set [1], in data set [2] and in data set [3] was above 1000 nM each time.
On to `COC(=O)[C@@H](C)C[C@H](Cc1ccccc1)NC(=O)c1csc([C@@H](C[C@H](C(C)C)N(C)C(=O)[C@H](NC(=O)[C@H]2CCCN2C)C(C(F)(F)F)C(F)(F)F)OC(C)=O)n1` [Tb86, Methyl (2S,4R)-4-[({2-[(1R,3R)-1-acetoxy-4-methyl-3-{methyl[(2R)-4,4,4-trifluoro-2-({[(2R)-1-meth-ylpyrrolidin-2-yl]carbonyl}amino)-3-(trifluoromethyl)butanoyl]amino}pentyl]-1,3-thiazol-4-yl}car-bonyl)amino]-2-methyl-5-phenylpentanoate], for which the IC50 in data set [1], in data set [2] and in data set [3] was above 1000 nM throughout.
As for `COC(=O)[C@@H](C)C[C@H](Cc1ccccc1)NC(=O)c1csc([C@@H](C[C@H](C(C)C)N(C)C(=O)[C@H](NC(=O)[C@H]2CCCCN2C)C(C(F)(F)F)C(F)(F)F)OC(C)=O)n1` [Tb85, Methyl(2S,4R)-4-[({2-[(1R,3R)-1-acetoxy-4-methyl-3-{methyl[(2R)-4,4,4-trifluoro-2-({[(2R)-1-meth-ylpiperidin-2-yl]carbonyl}amino)-3-(trifluoromethyl)butanoyl]amino}pentyl]-1,3-thiazol-4-yl}-carbonyl)amino]-2-methyl-5-phenylpentanoate], the 50% inhibitory concentration (IC50) in data set [1] is 32.4 nM; in data set [2], above 1000 nM; in data set [3] it was 37.3 nM.
